The source of these data is patent US20260250290A1 (BRISTOL-MYERS SQUIBB COMPANY, priority 2023, published 2026).

Counter-ions that a name gives are not always drawn.

In this test the target is T1, full length SGK1 (Homo sapiens, UniProt O00141).
T1 construct: 125 μM full length SGK1 (Life Technologies Part #PR7358A); purchased Life Technologies PR7358A
T1 sequence (O00141 1-431): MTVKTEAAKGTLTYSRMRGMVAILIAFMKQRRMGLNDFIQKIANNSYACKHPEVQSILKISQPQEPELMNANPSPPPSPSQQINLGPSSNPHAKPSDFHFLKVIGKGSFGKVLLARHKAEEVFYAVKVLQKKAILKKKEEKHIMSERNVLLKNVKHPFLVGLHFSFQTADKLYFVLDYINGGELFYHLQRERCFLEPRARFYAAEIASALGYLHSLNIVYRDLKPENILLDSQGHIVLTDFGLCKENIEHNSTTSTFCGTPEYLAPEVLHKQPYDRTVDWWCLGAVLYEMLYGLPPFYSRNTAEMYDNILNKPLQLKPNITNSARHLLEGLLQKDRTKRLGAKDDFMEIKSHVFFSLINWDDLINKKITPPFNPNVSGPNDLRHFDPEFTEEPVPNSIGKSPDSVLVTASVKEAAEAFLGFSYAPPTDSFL
The test can be described thus: SGK1 inhibition Assay A (Caliper LabChip electrophoretic separation of fluorescent peptide substrate and phosphorylated product). It counts as biochemical. The conditions noted are these: Assay A; 20 μM ATP, 40 min incubation; read-out: SGK1 IC50.
As for `N#Cc1ccc(C(=O)N[C@@H]2CCCN(c3cc(C#N)n4ncnc(N)c34)C2)s1` [Example 696, (R)—N-(1-(4-amino-7-cyanopyrrolo[2,1-f][1,2,4]triazin-5-yl)piperidin-3-yl)-5-cyanothiophene-2-carboxamide], the IC50 (in general, the concentration that gives 50% inhibition) turned out to be 80 nM.
Under `Nc1ncnn2c(-c3cnc4ncnn4c3)cc(N3CCC[C@@H](NC(=O)c4ccc(Cl)s4)C3)c12` [Example 246] stands 13 nM; under `CC(=O)N1CC=C(c2cc(N3CCC[C@@H](NC(=O)c4ccncn4)C3)c3c(N)ncnn23)C1` [Example 740, (R)-N-(1-(7-(1-acetyl-2,5-dihydro-1H-pyrrol-3-yl)-4-aminopyrrolo[2,1-f][1,2,4]triazin-5-yl)piperidin-3-yl)pyrimidine-4-carboxamide], 241 nM.
The figure for `CC(=O)N1CC=C(c2cc(N3CCC[C@@H](NC(=O)c4sc(Cl)cc4OC4CC(N(C)C)C4)C3)c3c(N)ncnn23)C1` (stereo partly drawn) [Example 599, (R)-N-(1-(7-(1-acetyl-2,5-dihydro-1H-pyrrol-3-yl)-4-aminopyrrolo[2,1-f][1,2,4]triazin-5-yl)piperidin-3-y1)-5-chloro-3-(3-(dimethylamino)cyclobutoxy)thiophene-2-carboxamide] is 8 nM.
The figure for `COC(=O)N1CC=C(c2cc(N3CCC[C@@H](NC(=O)c4sc(Cl)cc4OCCN4CC(F)(F)C4)C3)c3c(N)ncnn23)C1` [Example 288, Methyl (R)-3-(4-amino-5-(3-(5-chloro-3-(2-(3,3-difluoroazetidin-1-yl)ethoxy)thiophene-2-carboxamido)piperidin-1-yl)pyrrolo[2,1-f][1,2,4]triazin-7-yl)-2,5-dihydro-1H-pyrrole-1-carboxylate] is 16 nM; for “(R)-N-(1-(4-amino-7-(1-(2,2-difluoroethyl)-6-oxo-1,6-dihydropyridin-3-yl)pyrrolo[2,1-f][1,2,4]triazin-5-yl)piperidin-3-yl)-5-chlorothiophene-2-carboxamide [Example 520]” it is 3 nM; for `CC(=O)N1CC=C(c2cc(N3CCC[C@@H](NC(=O)c4cccc(OCCN5CCN(C)CC5)n4)C3)c3c(N)ncnn23)C1` [Example 701, (R)-N-(1-(7-(1-acetyl-2,5-dihydro-1H-pyrrol-3-yl)-4-aminopyrrolo[2,1-f][1,2,4]triazin-5-yl)piperidin-3-yl)-6-(2-(4-methylpiperazin-1-yl)ethoxy)picolinamide] it is 11 nM.
Consider “methyl 3-(4-amino-5-((3R)-3-(5-chloro-3-((2-methylpiperidin-4-yl)oxy)thiophene-2-carboxamido)piperidin-1-yl)pyrrolo[2,1-f][1,2,4]triazin-7-yl)-2,5-dihydro-1H-pyrrole-1-carboxylate [Example 621]”, for which the IC50 was determined as 6 nM.
Under `CC(=O)N1CC=C(c2cc(N3CCC[C@@H](NC(=O)c4sc(C(F)F)cc4C4CCN(C(C)C)C4)C3)c3c(N)ncnn23)C1` (stereo partly drawn) [Example 407, N-((R)-1-(7-(1-acetyl-2,5-dihydro-1H-pyrrol-3-yl)-4-aminopyrrolo[2,1-f][1,2,4]triazin-5-yl)piperidin-3-yl)-5-(difluoromethyl)-3-(1-isopropylpyrrolidin-3-yl)thiophene-2-carboxamide] stands 322 nM.
The figure for `N#Cc1ccc(-c2cc(N3CCC[C@@H](NC(=O)c4cc5ccccc5[nH]4)C3)c3c(N)ncnn23)cn1` [Example 509, (R)-N-(1-(4-amino-7-(6-cyanopyridin-3-yl)pyrrolo[2,1-f][1,2,4]triazin-5-yl)piperidin-3-yl)-1H-indole-2-carboxamide] is 21 nM; for `CS(=O)(=O)N1CC=C(c2cc(N3CCC[C@@H](NC(=O)c4sc(Cl)cc4OCCN4CCOCC4)C3)c3c(N)ncnn23)C1` [Example 142, (R)—N-(1-(4-amino-7-(1-(methylsulfonyl)-2,5-dihydro-1H-pyrrol-3-yl)pyrrolo[2,1-f][1,2,4]triazin-5-yl)piperidin-3-yl)-5-chloro-3-(2-morpholinoethoxy)thiophene-2-carboxamide, TFA] it is 9 nM; for `CC(=O)N1CC=C(c2cc(N3CCC[C@@H](NC(=O)C4CC(F)(F)C4)C3)c3c(N)ncnn23)C1` [Example 711, (R)-N-(1-(7-(1-acetyl-2,5-dihydro-1H-pyrrol-3-yl)-4-aminopyrrolo[2,1-f][1,2,4]triazin-5-yl)piperidin-3-yl)-3,3-difluorocyclobutane-1-carboxamide] it is 997 nM.
Under `CS(=O)(=O)c1ccc(-c2cc(N3CCC[C@@H](NC(=O)CCc4ccccc4)C3)c3c(N)ncnn23)cc1` [Example 15, (R)-N-(1-(4-amino-7-(4-(methylsulfonyl)phenyl)pyrrolo[2,1-f][1,2,4]triazin-5-yl)piperidin-3-yl)-3-phenylpropanamide, TFA] stands 499 nM.
On to `COC(=O)N1CC=C(c2cc(N3CCC[C@@H](NC(=O)c4cc5ccc(C(F)(F)F)cc5[nH]4)C3)c3c(N)ncnn23)C1` [Example 500, methyl (R)-3-(4-amino-5-(3-(6-(trifluoromethyl)-1H-indole-2-carboxamido)piperidin-1-yl)pyrrolo[2,1-f][1,2,4]triazin-7-yl)-2,5-dihydro-1H-pyrrole-1-carboxylate], for which the IC50 stood at 188 nM.
Under `Nc1ncnn2c(-c3cccc(OC(F)F)c3)cc(N3CCC[C@@H](NC(=O)c4ccc(Cl)s4)C3)c12` [Example 229] stands 46 nM; under `CC(=O)N1CC=C(c2cc(N3CCC[C@@H](NC(=O)c4ccc(-n5ccnc5)cc4)C3)c3c(N)ncnn23)C1` [Example 460, (R)-N-(1-(7-(1-acetyl-2,5-dihydro-1H-pyrrol-3-yl)-4-aminopyrrolo[2,1-f][1,2,4]triazin-5-yl)piperidin-3-yl)-4-(1H-imidazol-1-yl)benzamide], 67 nM; under `Cc1ccc(C(=O)N[C@@H]2CCN(c3cc(-c4ccc(S(C)(=O)=O)cc4)n4ncnc(N)c34)C2)s1` [Example 136, (R)—N-(1-(4-amino-7-(4-(methylsulfonyl)phenyl)pyrrolo[2,1-f][1,2,4]triazin-5-yl)pyrrolidin-3-yl)-5-methylthiophene-2-carboxamide, TFA], 230 nM.
Under `CC(=O)N1CC=C(c2cc(N3CCC[C@@H](NC(=O)c4cc5cnccc5[nH]4)C3)c3c(N)ncnn23)C1` [Example 490, (R)-N-(1-(7-(1-acetyl-2,5-dihydro-1H-pyrrol-3-yl)-4-aminopyrrolo[2,1-f][1,2,4]triazin-5-yl)piperidin-3-yl)-1H-pyrrolo[3,2-c]pyridine-2-carboxamide] stands 24 nM; under `CC(=O)N1CC=C(c2cc(N3CCC[C@@H](NC(=O)c4cccc(OCCN(C)C)n4)C3)c3c(N)ncnn23)C1` [Example 702, (R)-N-(1-(7-(1-acetyl-2,5-dihydro-1H-pyrrol-3-yl)-4-aminopyrrolo[2,1-f][1,2,4]triazin-5-yl)piperidin-3-yl)-6-(2-(dimethylamino)ethoxy) picolinamide], 12 nM; under `CS(=O)(=O)c1ccc(-c2cc(N3CCC[C@@H](NC(=O)c4cc5c(s4)CCCC5)C3)c3c(N)ncnn23)cc1` [Example 90, (R)-N-(1-(4-amino-7-(4-(methylsulfonyl)phenyl)pyrrolo[2,1-f][1,2,4]triazin-5-yl)piperidin-3-yl)-4,5,6,7-tetrahydrobenzo[b] thiophene-2-carboxamide], 49 nM.
Under `Nc1ncnn2c(C3=CCN(C(=O)c4ccno4)C3)cc(N3CCC[C@@H](NC(=O)c4ccc(Cl)s4)C3)c12` [Example 899, (R)-N-(1-(4-amino-7-(1-(isoxazole-5-carbony1)-2,5-dihydro-1H-pyrrol-3-y1)pyrrolo[2,1-f][1,2,4]triazin-5-y1)piperidin-3-y1)-5-chlorothiophene-2-carboxamide] stands 12 nM.
Regarding `COc1ccc2[nH]c(C(=O)N[C@@H]3CCCN(c4cc(C5=CCN(C(C)=O)C5)n5ncnc(N)c45)C3)cc2c1` [Example 491, (R)-N-(1-(7-(1-acetyl-2,5-dihydro-1H-pyrrol-3-yl)-4-aminopyrrolo[2,1-f][1,2,4]triazin-5-yl)piperidin-3-yl)-5-methoxy-1H-indole-2-carboxamide], the IC50 stood at 6 nM.
Under `CC(=O)N1CC=C(c2cc(N3CCC[C@@H](NC(=O)c4sc5ccccc5c4OC4CCNCC4)C3)c3c(N)ncnn23)C1` [Example 655, (R)—N-(1-(7-(1-acetyl-2,5-dihydro-1H-pyrrol-3-yl)-4-aminopyrrolo[2,1-f][1,2,4]triazin-5-yl)piperidin-3-yl)-3-(piperidin-4-yloxy)benzo[b]thiophene-2-carboxamide] stands 9 nM; under `CC(=O)N1CC=C(c2cc(N3CCC[C@@H](NC(=O)c4ccc(-c5cncnc5)s4)C3)c3c(N)ncnn23)C1` [Example 548, (R)-N-(1-(7-(1-acetyl-2,5-dihydro-1H-pyrrol-3-yl)-4-aminopyrrolo[2,1-f][1,2,4]triazin-5-yl)piperidin-3-yl)-5-(pyrimidin-5-yl)thiophene-2-carboxamide], 90 nM.
Take `CC(=O)N1CCC(Oc2cc(C(F)F)sc2C(=O)N[C@@H]2CCCN(c3cc(-c4cnc(C#N)c(C)c4)n4ncnc(N)c34)C2)CC1` [Example 415, (R)-3-((1-acetylpiperidin-4-yl)oxy)-N-(1-(4-amino-7-(6-cyano-5-methylpyridin-3-yl)pyrrolo[2,1-f][1,2,4]triazin-5-yl)piperidin-3-yl)-5-(difluoromethyl)thiophene-2-carboxamide]: the IC50 amounted to 8 nM.
